This is an account of results in patent US11331299B2, “Medicinal use of serrulatane diterpenes” (The University of Sydney, priority 2016, dated 2022).

Each structure is given as a SMILES string.

One assay concerns the target T1, EP300 (h) bromodomain (Homo sapiens, UniProt Q09472).
T1 construct: Bromodomain
T1 sequence (Q09472 1049-1156 limits assumed): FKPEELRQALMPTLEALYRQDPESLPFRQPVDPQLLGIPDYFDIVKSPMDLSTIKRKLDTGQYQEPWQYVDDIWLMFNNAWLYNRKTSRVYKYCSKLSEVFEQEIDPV
Nature of the assay: Epigenetic binding assay, Bromodomain. The conditions noted are these: for inhibition at 10 µM: read-out: % Inhibition of Control Specific Binding.

The target in another assay is T2, SETD8 (h) (Homo sapiens, UniProt Q9NQR1).
T2 sequence (Q9NQR1 1-393): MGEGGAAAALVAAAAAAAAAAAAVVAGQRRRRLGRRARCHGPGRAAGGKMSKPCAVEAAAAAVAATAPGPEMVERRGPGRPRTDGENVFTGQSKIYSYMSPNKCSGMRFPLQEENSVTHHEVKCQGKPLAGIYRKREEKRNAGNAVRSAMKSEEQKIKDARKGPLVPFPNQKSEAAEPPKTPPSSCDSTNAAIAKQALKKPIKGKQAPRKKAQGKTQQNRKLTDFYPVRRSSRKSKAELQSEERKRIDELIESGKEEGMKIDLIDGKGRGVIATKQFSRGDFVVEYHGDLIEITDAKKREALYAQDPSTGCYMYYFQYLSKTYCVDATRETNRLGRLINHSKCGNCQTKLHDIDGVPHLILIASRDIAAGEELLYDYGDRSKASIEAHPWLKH
Nature of the assay: Epigenetic enzyme assay, Methyltransferases (MTs). The assay is classed as biochemical. The conditions noted are these: 10 μM; read-out: % Inhibition of Control Values.

The target of a further assay is MLL3(h) complex (Homo sapiens, UniProt Q8NEZ4). Nature of the assay: Epigenetic enzyme assay, Methyltransferases (MTs). The assay is classed as biochemical. The conditions noted are these: for inhibition at 10 µM: read-out: % Inhibition of Control Values.
For the next assay, the target named is Sirtuin 6 (h) (Homo sapiens, UniProt Q8N6T7). Nature of the assay: Epigenetic enzyme assay, Sirtuins. The assay is classed as biochemical. The conditions noted are these: 10 μM; read-out: % Inhibition of Control Values.
A further assay has as its target USP 10 (h) (Homo sapiens, UniProt Q14694). Nature of the assay: Epigenetic enzyme assay, Ubiquitin modifying enzymes. The class given is biochemical. The conditions noted are these: 10 μM; read-out: % Inhibition of Control Values.
For the next assay, the target named is T3, Chemokine CX3CR1 (Homo sapiens, UniProt P49238).
T3 construct: expressed in transfected cells; host or cells: Chem-1 cells
T3 sequence (P49238 1-355): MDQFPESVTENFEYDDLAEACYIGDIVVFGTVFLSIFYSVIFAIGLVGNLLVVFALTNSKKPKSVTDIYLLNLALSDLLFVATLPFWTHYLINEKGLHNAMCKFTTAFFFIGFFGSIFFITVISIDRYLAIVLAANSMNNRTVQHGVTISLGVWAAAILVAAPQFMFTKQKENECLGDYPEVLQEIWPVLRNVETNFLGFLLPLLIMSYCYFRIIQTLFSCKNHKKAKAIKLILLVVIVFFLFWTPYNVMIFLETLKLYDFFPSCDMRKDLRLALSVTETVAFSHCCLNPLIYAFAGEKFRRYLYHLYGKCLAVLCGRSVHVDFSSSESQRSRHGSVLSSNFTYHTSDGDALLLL
Nature of the assay: Chemokine CX3CR1 radio ligand binding. The conditions noted are these: assay year 2015. Here is the method: The in vitro pharmacological studies were conducted by Eurofins PanLab (Taiwan) using the parameters shown in Table 13 with respect to appropriate literature references.

Another assay has as its target T4, CBX5 (h) chromodomain (Homo sapiens, UniProt P45973).
T4 construct: Recognition and specificity determinants of the human cbx chromodomains; Eurofins CEREP (France), contract laboratory
Nature of the assay: Epigenetic binding assay, Chromodomain. The conditions noted are these: read-out: % Inhibition of Control Specific Binding.

The test system of the next assay is RKO-AS45-1. Nature of the assay: OncoPanel cell proliferation assay (10-day). The assay is classed as cell-based, human. The conditions noted are these: for EC50 / GI50 / IC50: Homo sapiens, RKOAS451, RKO-AS45-1, Colon; for EC50: read-out: Cell Count EC50; for GI50: read-out: Cell Count GI50; for IC50: read-out: Cell Count IC50.
In the next assay the target is T5, JMJD2C (h) (Homo sapiens, UniProt Q9H3R0).
T5 sequence (Q9H3R0 1-1056): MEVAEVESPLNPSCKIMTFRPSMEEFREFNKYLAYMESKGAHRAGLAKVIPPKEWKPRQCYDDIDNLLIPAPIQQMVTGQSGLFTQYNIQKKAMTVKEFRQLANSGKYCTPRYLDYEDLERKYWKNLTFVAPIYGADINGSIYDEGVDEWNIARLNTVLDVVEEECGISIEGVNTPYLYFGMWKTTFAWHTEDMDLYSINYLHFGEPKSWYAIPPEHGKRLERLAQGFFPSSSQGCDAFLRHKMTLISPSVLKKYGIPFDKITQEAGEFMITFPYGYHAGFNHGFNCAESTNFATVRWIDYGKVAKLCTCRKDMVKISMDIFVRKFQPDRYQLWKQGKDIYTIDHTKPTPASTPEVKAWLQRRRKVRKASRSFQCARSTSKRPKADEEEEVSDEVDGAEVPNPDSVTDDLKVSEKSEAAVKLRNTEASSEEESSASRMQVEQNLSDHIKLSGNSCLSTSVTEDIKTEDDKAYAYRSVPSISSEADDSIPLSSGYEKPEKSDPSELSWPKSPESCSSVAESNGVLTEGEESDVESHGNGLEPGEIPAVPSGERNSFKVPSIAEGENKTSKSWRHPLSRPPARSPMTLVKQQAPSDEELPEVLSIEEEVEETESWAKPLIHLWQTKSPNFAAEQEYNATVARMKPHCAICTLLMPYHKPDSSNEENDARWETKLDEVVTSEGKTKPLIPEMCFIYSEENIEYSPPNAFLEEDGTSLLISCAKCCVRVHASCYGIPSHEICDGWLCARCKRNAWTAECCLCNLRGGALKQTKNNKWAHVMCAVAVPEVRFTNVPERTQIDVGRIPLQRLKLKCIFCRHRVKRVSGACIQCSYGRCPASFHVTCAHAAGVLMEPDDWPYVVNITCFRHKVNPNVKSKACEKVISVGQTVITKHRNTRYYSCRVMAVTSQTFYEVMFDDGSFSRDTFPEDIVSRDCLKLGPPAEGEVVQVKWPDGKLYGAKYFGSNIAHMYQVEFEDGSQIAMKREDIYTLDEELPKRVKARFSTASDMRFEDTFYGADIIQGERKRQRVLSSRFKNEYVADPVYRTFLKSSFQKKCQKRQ
Nature of the assay: Epigenetic enzyme assay, Demethylases (KDMs). The class given is biochemical. The conditions noted are these: read-out: % Inhibition of Control Values.

For assay [1], the target named is Guanidinoacetate N-methyltransferase (h) (Homo sapiens, UniProt Q14353). Nature of the assay: Epigenetic enzyme assay, Small molecule methyltransferases. The assay is classed as biochemical. The conditions noted are these: read-out: % Inhibition of Control Values.
A further assay concerns the target SETDB1 (h) (Homo sapiens, UniProt Q15047). Nature of the assay: Epigenetic enzyme assay, Methyltransferases (MTs). The conditions noted are these: for inhibition at 10 µM: read-out: % Inhibition of Control Values. The class given is biochemical.
The next assay deals with T6, BRD2(1) (h) bromodomain (Homo sapiens, UniProt P25440).
T6 construct: Bromodomain
Nature of the assay: Epigenetic binding assay, Bromodomain. The conditions noted are these: for % Inhibition of Control Specific Binding / inhibition at 10 µM: 10 μM; for inhibition at 10 µM: read-out: % Inhibition of Control Specific Binding.

In a further assay the target is T7, SP140 (h) PHD domain (Homo sapiens, UniProt Q13342).
T7 construct: Eurofins CEREP (France), contract laboratory
Nature of the assay: Epigenetic binding assay, PHD domain. The conditions noted are these: for inhibition at 10 µM: read-out: % Inhibition of Control Specific Binding.

Setting [2] is: Table 9, inhibition/concentration-response curve.

T4 sequence (P45973 20-78 limits assumed): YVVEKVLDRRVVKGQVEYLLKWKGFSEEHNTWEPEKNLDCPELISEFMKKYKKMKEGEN
Sequence of Sirtuin 6 (h) (Q8N6T7 whole entry): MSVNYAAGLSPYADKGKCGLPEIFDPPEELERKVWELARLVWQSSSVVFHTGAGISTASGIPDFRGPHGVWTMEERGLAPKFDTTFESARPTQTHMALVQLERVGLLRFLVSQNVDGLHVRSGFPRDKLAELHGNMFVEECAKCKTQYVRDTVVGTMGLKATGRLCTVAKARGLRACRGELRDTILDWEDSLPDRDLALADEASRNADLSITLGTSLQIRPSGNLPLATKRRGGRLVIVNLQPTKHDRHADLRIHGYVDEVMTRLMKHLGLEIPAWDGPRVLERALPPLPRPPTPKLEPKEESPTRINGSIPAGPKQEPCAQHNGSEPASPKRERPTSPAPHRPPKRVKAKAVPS
T6 sequence (P25440 74-180 limits assumed): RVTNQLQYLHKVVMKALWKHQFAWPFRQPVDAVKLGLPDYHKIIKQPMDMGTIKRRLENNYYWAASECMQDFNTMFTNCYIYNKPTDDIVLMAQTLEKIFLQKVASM
Sequence of USP 10 (h) (Q14694 whole entry): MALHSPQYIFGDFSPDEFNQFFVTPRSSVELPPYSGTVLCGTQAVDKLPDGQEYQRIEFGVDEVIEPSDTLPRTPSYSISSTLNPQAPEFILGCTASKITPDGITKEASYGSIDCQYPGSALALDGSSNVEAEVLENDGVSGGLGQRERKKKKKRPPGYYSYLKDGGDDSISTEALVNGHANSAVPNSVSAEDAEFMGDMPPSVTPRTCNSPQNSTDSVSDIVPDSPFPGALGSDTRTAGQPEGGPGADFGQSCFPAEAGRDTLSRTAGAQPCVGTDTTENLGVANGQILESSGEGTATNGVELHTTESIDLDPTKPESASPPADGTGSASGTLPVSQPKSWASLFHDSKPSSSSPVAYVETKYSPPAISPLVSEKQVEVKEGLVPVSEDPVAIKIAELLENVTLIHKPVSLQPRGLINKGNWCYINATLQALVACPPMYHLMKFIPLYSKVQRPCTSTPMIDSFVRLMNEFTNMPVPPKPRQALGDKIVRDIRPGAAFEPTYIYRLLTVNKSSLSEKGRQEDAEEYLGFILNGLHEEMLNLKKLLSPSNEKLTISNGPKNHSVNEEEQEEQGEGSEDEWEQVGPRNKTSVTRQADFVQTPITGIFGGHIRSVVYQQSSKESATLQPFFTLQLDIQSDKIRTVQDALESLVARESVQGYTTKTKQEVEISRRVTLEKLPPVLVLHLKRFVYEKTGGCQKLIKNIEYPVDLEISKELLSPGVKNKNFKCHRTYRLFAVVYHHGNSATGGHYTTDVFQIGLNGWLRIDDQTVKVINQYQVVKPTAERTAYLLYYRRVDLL
T7 sequence (Q13342 690-736 limits assumed): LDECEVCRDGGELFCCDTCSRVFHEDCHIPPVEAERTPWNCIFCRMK

In the case of `CC(C)=CCC[C@H](CO)[C@@H]1CC[C@@H](C)c2c1cc(C)c(O)c2O` [Compound 1, 7,8,18-trihydroxyserrulat-14-ene], the “% Inhibition of Control Specific Binding” value on EP300 (h) bromodomain (10 μM) is “significant inhibitory activity”; on BRD2(1) (h) bromodomain, “significant inhibitory activity”; on SP140 (h) PHD domain (10 μM), “good inhibitory activity”. Moreover, the inhibition at 10 µM is 89% at EP300 (h) bromodomain (10 μM); 4% at SETD8 (h); -22% on MLL3(h) complex; 2% on Sirtuin 6 (h); 7% on USP 10 (h); 25% at CBX5 (h) chromodomain. Also, the inhibition at 10 µM was 35% on JMJD2C (h); 8% in assay [1]; 53% at SETDB1 (h); 60% on BRD2(1) (h) bromodomain; 74% on SP140 (h) PHD domain (10 μM). Further, the IC50 was 4.5 µM at EP300 (h) bromodomain (setting [2]), 1.5 µM in the assay with RKO-AS45-1 and 4.6 µM on SP140 (h) PHD domain (setting [2]). The percent of control response at 10 µM at Chemokine CX3CR1 was -1%. Also, the “Relative cell count (%) Mean” value in the assay on RKO-AS45-1 (3.00E+00 microM) came to 7.6%; with RKO-AS45-1 (3.00E+01 microM) it was 0.1%; in the assay on RKO-AS45-1 (3.01E−01 microM), 90.0%; in the assay on RKO-AS45-1 (3.01E−02 microM), 86.2%; in the assay with RKO-AS45-1 (3.02E−03 microM) it was 83.7%; in the assay with RKO-AS45-1 (9.49E+00 microM), 0.1%. Moreover, the “Relative cell count (%) Mean” value was found to be 72.1% in the assay with RKO-AS45-1 (9.51E−01 microM), 80.5% in the assay with RKO-AS45-1 (9.52E−02 microM), 88.3% in the assay on RKO-AS45-1 (9.53E−03 microM) and 95.4% in the assay on RKO-AS45-1 (9.55E−04 microM). Besides, the EC50 in the assay on RKO-AS45-1 amounted to 1.5 µM. The GI50 in the assay with RKO-AS45-1 worked out at 1.5 µM.

Regarding `CC(C)=CCC[C@H](C)[C@@H]1CC[C@@H](C)c2c1cc(C)c(O)c2O` [Compound 4, 7,8-dihydroxyserrulat-14-ene], in the assay with RKO-AS45-1, the EC50 is 12.8 µM, the GI50 was determined as 12.8 µM and the IC50 came to 12.8 µM.

As for `CC(C)=CCC[C@@H]1COc2c(C)cc(O)c3c2[C@H]1CC[C@H]3C` [Compound 3, 5,18-epoxy-8-hydroxyserrulat-14-ene], the inhibition at 10 µM at EP300 (h) bromodomain (10 μM) was 40%; at SETD8 (h), -10%; on MLL3(h) complex, -33%; on Sirtuin 6 (h) it was -4%; on USP 10 (h), -7%; at CBX5 (h) chromodomain it was 25%. The inhibition at 10 µM at JMJD2C (h) was 8%; in [1], -1%; on SETDB1 (h) it was 52%; on BRD2(1) (h) bromodomain it was 19%; at SP140 (h) PHD domain (10 μM), 2%. Moreover, at Chemokine CX3CR1, the percent of control response at 10 µM came out at 7%.

Regarding `CC(C)=CCC[C@@H]1C(O)Oc2c(C)cc(O)c3c2[C@H]1CC[C@H]3C` (stereo partly shown) [Compound 2, 5,18-epoxyserrulat-14-en-8,18-diol], the inhibition at 10 µM at EP300 (h) bromodomain (10 μM) was 37%; at SETD8 (h), 25%; on MLL3(h) complex, -21%; on Sirtuin 6 (h) it was 6%; at USP 10 (h) it was 2%; at CBX5 (h) chromodomain, 24%. Moreover, the inhibition at 10 µM was 2% at JMJD2C (h); -1% in assay [1]; 43% on SETDB1 (h); 89% at BRD2(1) (h) bromodomain; 0% at SP140 (h) PHD domain (10 μM). The percent of control response at 10 µM on Chemokine CX3CR1 turned out to be 5%. The EC50 in the assay on RKO-AS45-1 came out at 9.64 µM. Moreover, the GI50 in the assay with RKO-AS45-1 was 9.62 µM. In addition, the IC50 was determined as 9.64 µM with RKO-AS45-1 and 22 µM on BRD2(1) (h) bromodomain (setting [2]). The “% Inhibition of Control Specific Binding” value at BRD2(1) (h) bromodomain is “significant activity”.

Take `Nc1ncnc2c1ncn2[C@@H]1O[C@H](CSCC[C@H](N)C(=O)O)[C@@H](O)[C@H]1O` [SAH]: the values for the IC50 on MLL3(h) complex (read-out: Reference IC50) and on SETDB1 (h) (read-out: Reference IC50) were 9 µM and 1.8 µM, respectively.
